{"source": "patent US4001218A", "about": "“Penicillins” (Bayer Aktiengesellschaft, priority 1972, dated 1977)", "key": {"Proteus morg. 932": {"tested_on": "Proteus morg. 932", "assay": "MIC, test tube series dilution test, Proteus morg. 932", "format": "cell-based", "settings": "24 hours, 37°C"}, "E. coli A 261": {"tested_on": "E. coli A 261", "assay": "MIC, test tube series dilution test, E. coli A 261", "format": "cell-based", "settings": "24 hours, 37°C"}, "Shigella sp.": {"tested_on": "Shigella sp.", "assay": "turbidity test at 100 μg/ml", "format": "cell-based"}, "Borrelia sp.": {"tested_on": "Borrelia sp.", "assay": "turbidity test at 100 μg/ml", "format": "cell-based", "settings": "24 hours"}, "[1]": {"tested_on": "Proteus, indole-negative, sp.", "assay": "turbidity test at 100 μg/ml", "format": "cell-based", "settings": "24 hours"}, "Klebsiella K 10 [2]": {"tested_on": "Klebsiella K 10", "assay": "MIC, test tube series dilution test, Klebsiella K 10", "format": "cell-based", "settings": "24 hours, 37°C"}, "Bacteroides sp.": {"tested_on": "Bacteroides sp.", "assay": "turbidity test at 100 μg/ml", "format": "cell-based", "settings": "24 hours"}, "Psdm. aerug. F 41": {"tested_on": "Psdm. aerug. F 41", "assay": "MIC, test tube series dilution test, Psdm. aerug. F 41", "format": "cell-based, Pseudomonas aeruginosa", "settings": "Psdm. aerug. F 41; 24 hours, 37°C"}, "Staph. aureus 133": {"tested_on": "Staph. aureus 133", "format": "cell-based, Staphylococcus aureus", "settings": "Staph. aureus 133; 24 hours, 37°C"}, "[3]": {"tested_on": "Staphylococcus aureus 133", "assay": "turbidity test at 100 μg/ml", "format": "cell-based", "settings": "24 hours"}, "[4]": {"tested_on": "Corynebacterium pyogenes M", "assay": "turbidity test at 100 μg/ml", "format": "cell-based", "settings": "24 hours"}, "Klebsiella 63 [5]": {"tested_on": "Klebsiella 63", "assay": "MIC, test tube series dilution test, Klebsiella 63", "format": "cell-based", "settings": "Klebsiella 63; 24 hours, 37°C"}, "Serratia sp.": {"tested_on": "Serratia sp.", "assay": "turbidity test at 100 μg/ml", "format": "cell-based", "settings": "24 hours"}, "Lactobacillus sp.": {"tested_on": "Lactobacillus sp.", "assay": "turbidity test at 100 μg/ml", "format": "cell-based", "settings": "24 hours"}, "Staph. aureus 1756": {"tested_on": "Staph. aureus 1756", "assay": "MIC, test tube series dilution test, Staph. aureus 1756", "format": "cell-based, Staphylococcus aureus", "settings": "Staph. aureus 1756; 24 hours, 37°C"}, "Enterococcus 9790": {"tested_on": "Enterococcus 9790", "assay": "MIC, test tube series dilution test, Enterococcus 9790", "format": "cell-based", "settings": "24 hours, 37°C"}, "Enterobacter sp.": {"tested_on": "Enterobacter sp.", "assay": "turbidity test at 100 μg/ml", "format": "cell-based", "settings": "24 hours"}, "Clostridium tetani": {"tested_on": "Clostridium tetani", "format": "cell-based", "settings": "100 μg/ml, 24 hours"}, "[6]": {"tested_on": "Neisseria cartarrhalis sp.", "assay": "turbidity test at 100 μg/ml", "format": "cell-based", "settings": "24 hours"}, "Aeromonas hydrophila sp.": {"tested_on": "Aeromonas hydrophila sp.", "assay": "turbidity test at 100 μg/ml", "format": "cell-based", "settings": "24 hours"}, "[7]": {"tested_on": "Diplococcus pneumoniae sp.", "assay": "turbidity test at 100 μg/ml", "format": "cell-based", "settings": "24 hours"}, "[8]": {"tested_on": "Bordetella bronchiseptica", "assay": "turbidity test at 100 μg/ml", "format": "cell-based", "settings": "24 hours"}, "E. Coli c165": {"tested_on": "E. Coli c165", "assay": "turbidity test at 100 μg/ml", "format": "cell-based", "settings": "24 hours"}, "Klebsiella 62": {"tested_on": "Klebsiella 62", "assay": "animal experiment, Klebsiella 62 infection", "settings": "s.c. 2 × 3000 Units per animal, experiment with Ex.1"}, "Proteus vulgaris 1017": {"tested_on": "Proteus vulgaris 1017", "assay": "turbidity test at 100 μg/ml", "format": "cell-based", "settings": "24 hours"}, "Salmonella sp.": {"tested_on": "Salmonella sp.", "assay": "turbidity test at 100 μg/ml", "format": "cell-based"}, "Klebsiella 63 [9]": {"tested_on": "Klebsiella 63", "assay": "turbidity test at 100 μg/ml", "format": "cell-based", "settings": "24 hours"}, "[10]": {"tested_on": "Pseudomonas aeruginosa sp.", "assay": "turbidity test at 100 μg/ml", "format": "cell-based", "settings": "24 hours"}, "[11]": {"tested_on": "Proteus, indole-positive, sp.", "assay": "turbidity test at 100 μg/ml", "format": "cell-based", "settings": "24 hours"}, "Klebsiella K 10 [12]": {"tested_on": "Klebsiella K 10", "assay": "turbidity test at 100 μg/ml", "format": "cell-based", "settings": "24 hours"}, "[13]": {"tested_on": "Pasteurella pseudotuberculosis", "format": "cell-based", "settings": "100 μg/ml, 24 hours"}, "Streptococcus pyogenes W": {"tested_on": "Streptococcus pyogenes W", "assay": "turbidity test at 100 μg/ml", "format": "cell-based", "settings": "24 hours"}, "E. coli 14 [14]": {"tested_on": "E. coli 14", "format": "cell-based", "settings": "E. coli 14; 24 hours, 37°C"}, "Psdm. aerug. Walter": {"tested_on": "Psdm. aerug. Walter", "assay": "MIC, test tube series dilution test, Psdm. aerug. Walter", "format": "cell-based, Pseudomonas aeruginosa", "settings": "Psdm. aerug. Walter; 24 hours, 37°C"}, "E. coli 14 [15]": {"tested_on": "E. coli 14", "assay": "turbidity test at 100 μg/ml", "format": "cell-based", "settings": "24 hours"}, "[16]": {"tested_on": "Corynebacterium diphteriae gravis", "assay": "turbidity test at 100 μg/ml", "format": "cell-based", "settings": "24 hours"}, "Haemophilus influenzae": {"tested_on": "Haemophilus influenzae", "assay": "turbidity test at 100 μg/ml", "format": "cell-based", "settings": "24 hours"}, "E. coli 183/58": {"tested_on": "E. coli 183/58", "assay": "MIC, test tube series dilution test, E. coli 183/58", "format": "cell-based", "settings": "24 hours, 37°C"}, "Clostridium botulinium": {"tested_on": "Clostridium botulinium", "format": "cell-based"}, "E. coli C 165": {"tested_on": "E. coli C 165", "assay": "MIC, test tube series dilution test, E. coli C 165", "format": "cell-based", "settings": "24 hours, 37°C"}, "Enterococcus sp.": {"tested_on": "Enterococcus sp.", "assay": "turbidity test at 100 μg/ml", "format": "cell-based", "settings": "24 hours"}, "Brucella sp.": {"tested_on": "Brucella sp.", "format": "cell-based", "settings": "100 μg/ml, 24 hours"}, "Proteus vulg. 1017": {"tested_on": "Proteus vulg. 1017", "format": "cell-based, Proteus vulgaris", "settings": "Proteus 1017; 24 hours, 37°C"}}}
{"smiles": "CC1(C)S[C@@H]2[C@H](NC(=O)[C@H](NC(=O)c3ccc(NC(=O)C4CC4)cc3)c3ccccc3)C(=O)N2[C@H]1C(=O)O", "note": "[Example 1, sodium D(-)-α-(4-cyclopropanecarbonylamino-benzoylamino)-benzylpenicillin]", "values": [{"measurement": "MIC", "setting": "Proteus morg. 932", "result": 8, "unit": "U/ml"}, {"measurement": "MIC", "setting": "E. coli A 261", "result": "> 256", "unit": "U/ml"}, {"measurement": "degree of turbidity", "setting": "Shigella sp.", "result": "non-turbid"}, {"measurement": "degree of turbidity", "setting": "Borrelia sp.", "result": "non-turbid"}, {"measurement": "degree of turbidity", "setting": "[1]", "result": "non-turbid"}, {"measurement": "MIC", "setting": "Klebsiella K 10 [2]", "result": 64, "unit": "U/ml"}, {"measurement": "degree of turbidity", "setting": "Bacteroides sp.", "result": "non-turbid"}, {"measurement": "MIC", "setting": "Psdm. aerug. F 41", "result": 32, "unit": "U/ml"}, {"measurement": "MIC", "setting": "Staph. aureus 133", "result": "< 1", "unit": "U/ml"}, {"measurement": "degree of turbidity", "setting": "[3]", "result": "non-turbid"}, {"measurement": "degree of turbidity", "setting": "[4]", "result": "non-turbid"}, {"measurement": "MIC", "setting": "Klebsiella 63 [5]", "result": 64, "unit": "U/ml"}, {"measurement": "degree of turbidity", "setting": "Serratia sp.", "result": "non-turbid"}, {"measurement": "degree of turbidity", "setting": "Lactobacillus sp.", "result": "non-turbid"}, {"measurement": "MIC", "setting": "Staph. aureus 1756", "result": 64, "unit": "U/ml"}, {"measurement": "MIC", "setting": "Enterococcus 9790", "result": "~ 8 U/ml"}, {"measurement": "degree of turbidity", "setting": "Enterobacter sp.", "result": "non-turbid"}, {"measurement": "degree of turbidity", "setting": "Clostridium tetani", "result": "non-turbid"}, {"measurement": "degree of turbidity", "setting": "[6]", "result": "non-turbid"}, {"measurement": "degree of turbidity", "setting": "Aeromonas hydrophila sp.", "result": "non-turbid"}, {"measurement": "degree of turbidity", "setting": "[7]", "result": "non-turbid"}, {"measurement": "degree of turbidity", "setting": "[8]", "result": "non-turbid"}, {"measurement": "degree of turbidity", "setting": "E. Coli c165", "result": "non-turbid"}, {"measurement": "Surviving animals", "setting": "Klebsiella 62; 1st day after infection", "result": 100, "unit": "%"}, {"measurement": "Surviving animals", "setting": "Klebsiella 62; 2nd day after infection", "result": 100, "unit": "%"}, {"measurement": "Surviving animals", "setting": "Klebsiella 62; 3rd day after infection", "result": 50, "unit": "%"}, {"measurement": "Surviving animals", "setting": "Klebsiella 62; 5th day after infection", "result": 50, "unit": "%"}, {"measurement": "degree of turbidity", "setting": "Proteus vulgaris 1017", "result": "non-turbid"}, {"measurement": "degree of turbidity", "setting": "Salmonella sp.", "result": "non-turbid"}, {"measurement": "degree of turbidity", "setting": "Klebsiella 63 [9]", "result": "non-turbid"}, {"measurement": "degree of turbidity", "setting": "[10]", "result": "non-turbid"}, {"measurement": "degree of turbidity", "setting": "[11]", "result": "non-turbid"}, {"measurement": "degree of turbidity", "setting": "Klebsiella K 10 [12]", "result": "non-turbid"}, {"measurement": "degree of turbidity", "setting": "[13]", "result": "non-turbid"}, {"measurement": "degree of turbidity", "setting": "Streptococcus pyogenes W", "result": "non-turbid"}, {"measurement": "MIC", "setting": "E. coli 14 [14]", "result": 4, "unit": "U/ml"}, {"measurement": "MIC", "setting": "Psdm. aerug. Walter", "result": 16, "unit": "U/ml"}, {"measurement": "degree of turbidity", "setting": "E. coli 14 [15]", "result": "non-turbid"}, {"measurement": "degree of turbidity", "setting": "[16]", "result": "non-turbid"}, {"measurement": "degree of turbidity", "setting": "Haemophilus influenzae", "result": "non-turbid"}, {"measurement": "MIC", "setting": "E. coli 183/58", "result": 16, "unit": "U/ml"}, {"measurement": "degree of turbidity", "setting": "Clostridium botulinium", "result": "non-turbid"}, {"measurement": "MIC", "setting": "E. coli C 165", "result": 16, "unit": "U/ml"}, {"measurement": "degree of turbidity", "setting": "Enterococcus sp.", "result": "non-turbid"}, {"measurement": "degree of turbidity", "setting": "Brucella sp.", "result": "non-turbid"}, {"measurement": "MIC", "setting": "Proteus vulg. 1017", "result": "< 32", "unit": "U/ml"}]}
